Assay results taken from publication PMC6001375, “CLERK is a novel receptor kinase required for sensing of root-active CLE peptides in Arabidopsis” (Development (Cambridge, England), 2018).

How the values were obtained:
[1] = tested on: VISUAL-cultured wild-type cotyledons (sieve element-specific genes); assay: RNAseq transcriptomic response in the VISUAL trans-differentiation assay; type: cell-based, Arabidopsis thaliana; conditions: for Number of responsive genes / Overlap of CLE26- and CLE45-responsive genes: 100 nM peptide, 2 h, q value<0.01
Text: In an attempt to isolate novel components of CLE peptide signaling in A. thaliana root protophloem development, we embarked on a combinatorial approach of transcriptomic analysis and forward genetics. Experimental investigation of developing protophloem sieve elements is inherently difficult, because they represent only 40-50 cells inside the vascular cylinder of the root meristem, and some of our genes of interest are expressed only in a subset of these. Protophloem-specific transcriptomic responses are thus strongly diluted when root tips are assayed, and attempts to identify, e.g. protophloem-specific CLE45-responsive genes have so far been unsuccessful ([Depuydt et al., 2013]). However, in a novel trans-differentiation assay [vascular cell induction culture system using Arabidopsis leaves (VISUAL)] ([Kondo et al., 2016]), in which cotyledon or leaf mesophyll cells are re-programmed to differentiate into a ∼50:50 mix of xylem vessels and sieve elements, sieve element-specific genes can be monitored in unprecedented abundance. Although these trans-differentiated sieve elements are not root protophloem, they do represent a native cell type in which sieve element regulators can be investigated successfully ([Breda et al., 2017]; [Kondo et al., 2016]). Moreover, a transcriptomic time series identified BAM3 as a central node in the early module of the trans-differentiation process ([Kondo et al., 2016]). Thus, we concluded that VISUAL could be employed to identify CLE26- and CLE45-responsive sieve element-specific genes. To achieve this, we VISUAL-cultured wild-type cotyledons and monitored BAM3 expression in a parallel cultured transgenic line that carried a BAM3::GUS reporter gene. Strong comprehensive BAM3 expression was observed after 48 h. At this time point, the wild-type sample was split in replicates and treated with control, 100 nM CLE26 or 100 nM CLE45 for 2 h. Total RNA was isolated immediately after from these samples, and cDNA was prepared for high-throughput sequencing.
Vascular tissue trans-differentiation was induced in cotyledons over 2 days as described previously ([Kondo et al., 2016]). Samples were then treated with 100 nM of CLE26 or CLE45 peptide for 2 h. Total RNA of two biological replicates was then extracted from 100 mg of fresh material, using RNeasy Plant mini kits (Qiagen). Truseq Stranded mRNA kits (Illumina) were used to prepare cDNA libraries, which were sequenced on an Illumina Hiseq 2500 instrument. Read counts and differential expression were determined with Kallisto ([Bray et al., 2016]) and Sleuth ([Pimentel et al., 2017]) software, using the TAIR10 reference transcriptome. The raw data have been deposited in the NCBI Sequence Read Archive (www.ncbi.nlm.nih.gov/sra/) under accession SRP126390.

[2] = tested on: CLERK ectodomain (CLERK-ECD); assay: Isothermal titration calorimetry, CLERK ectodomain; type: binding, Arabidopsis thaliana; conditions: ITC, 25°C, 20 mM citrate (pH 5.0), 150 mM NaCl; 400 µM peptide into 30 µM CLERK-ECD
Description: Isolation of recombinant proteins and analytical gel filtrations were carried out as described previously ([Hazak et al., 2017]) with small adjustments. The coding sequences for BAM1-ECD (amino acids 20-637), BAM3-ECD (30-651), PXY-ECD (30-647), NIK1-ECD (32-248), NIK2-ECD (33-248), NIK3-ECD (26-238), CLERK-ECD (28-236) and At5G63710-ECD (51-224) were amplified from Arabidopsis thaliana cDNA using PfuX7 polymerase. All ECD-coding sequences were then cloned into a modified pFAST-BAC1 vector (Geneva Biotech) by GIBSON cloning, resulting in the addition of the azurocidin signal peptide sequence to the 5′-end, and of a 2×-STREP-9×HIS tag to the 3′-end of the ECD sequences. These plasmids, after being confirmed by sequencing, were transformed into Escherichia coli DH10MultiBac (Geneva Biotech) followed by the extraction of the resulting bacmids. Transfection of the bacmids into Spodoptera frugiperda Sf9 cells with Profectin (AB Vector) was carried out to produce and amplify the respective virus. Recombinant secreted expression of the proteins was carried out by addition of virus to Trichoplusia ni Tnao38 cells to reach a viral multiplicity of 1 and incubation of the cells for 3 days. […] Concentrations of the pure proteins were assessed by measuring their absorbance at 280 nm (NanoDrop Lite; Thermo Scientific) and subsequent correction with their respective extinction coefficient. […]

Direct binding to CLERK ectodomain [2] | Sequence | Regulation of SARK and NIK2 ([1]; 100 nM CLE26, 2 h) | Regulation of CLERK (At2g23950) ([1]; 100 nM CLE26, 2 h, top CLE26-responsive gene) | Number of responsive genes [1] [genes] | Overlap of CLE26- and CLE45-responsive genes [1] [genes]
no direct binding | RKVPRGPDPIHN [CLE26] | downregulated | downregulated | 167 | 36
no direct binding | RRVRRGSDPIHN [CLE45] | – | – | 97 | 36
